# Patent US20230089247A1, “NOVEL COMPOUNDS SUITABLE FOR THE TREATMENT OF DYSLIPIDEMIA” (ZYDUS LIFESCIENCES LIMITED, priority 2019, published 2023)
# Key:
# PCSK9 = PCSK9 (Homo sapiens, UniProt Q8NBP7); assay: BODIPY-LDL uptake assay in HepG2 cells; format: cell-based; details: 5 μg/ml PCSK9, BODIPY-LDL
# Procedure, shortened: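 Compounds pre-incubated 60 min with 5 μg/ml PCSK9 (0.2% DMSO), then added to HepG2 cells for 16 h; 1 μg/ml BODIPY-LDL added in serum-free medium for 5 h. Fluorescence (Ex 485/Em 520 nm) normalized to protein; PCSK9-only wells = 0%, no-PCSK9 wells = 100% uptake, giving percent increase in LDL uptake.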
# High Fat Diet C57 Mice = assay: LDL-C lowering activity in high fat diet C57 mice; format: in vivo; details: Mus musculus, po, 168 h; C57 mice on high fat diet; 30 mg/Kg orally once a day, 7 days treatment, blood on day 7; read-out: % Change Vs Vehicle Control in LDLc
# Description: LDL-C Lowering Activity—in High Fat Diet C57 Mice
# The in-vivo LDL-c lowering for test compound was tested in C57 mice which were kept on high fat diet for 4 weeks and the blood was collected by retro-orbital sinus puncture method under light ether anesthesia on day 0 (pretreatment). Animal are grouped based on LDL-c levels, after that 7 days treatment with vehicle or test compound orally at a dose of 30 mpk dose once a day was given. On completion of treatment on day 7 of the treatment the blood was collected for LDL-c and TC levels measurement.
# PCSK9, sequence (Q8NBP7 153-692): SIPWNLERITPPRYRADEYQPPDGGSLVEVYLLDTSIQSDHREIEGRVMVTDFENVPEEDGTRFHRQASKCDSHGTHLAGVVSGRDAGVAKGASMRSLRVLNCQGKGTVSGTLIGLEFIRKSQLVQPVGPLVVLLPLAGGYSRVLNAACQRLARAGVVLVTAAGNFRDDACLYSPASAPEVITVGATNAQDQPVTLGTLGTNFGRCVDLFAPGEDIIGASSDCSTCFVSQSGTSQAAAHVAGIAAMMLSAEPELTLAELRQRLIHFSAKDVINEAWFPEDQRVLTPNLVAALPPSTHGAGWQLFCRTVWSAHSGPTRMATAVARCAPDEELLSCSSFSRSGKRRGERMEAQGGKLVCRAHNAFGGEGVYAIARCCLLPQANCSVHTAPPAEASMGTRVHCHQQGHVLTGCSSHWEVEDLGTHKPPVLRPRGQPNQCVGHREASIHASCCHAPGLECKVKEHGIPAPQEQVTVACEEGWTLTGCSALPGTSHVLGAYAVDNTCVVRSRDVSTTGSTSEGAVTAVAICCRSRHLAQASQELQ
SMILES,% increase in LDL Uptake (PCSK9; 1 μM test compound) [%],% increase in LDL Uptake (PCSK9; 10 μM test compound) [%],% increase in LDL Uptake (PCSK9; 30 μM test compound) [%],change in vivo at 30 mg/kg (High Fat Diet C57 Mice) [%]
"COC1(c2ccc(C(=O)N3Cc4cn(-c5ccc(C(F)(F)F)cc5)nc4C3)cc2)COC1 [Example 90, (4-(3-methoxyoxetan-3-yl)phenyl)(2-(4-(trifluoromethyl)phenyl)-2,6-dihydropyrrolo[3,4-c]pyrazol-5(4H)-yl)methanone]",3,39,74,-5.5 ± 4.5
"O=C(c1ccc(C2(O)COC2)cc1)N1CC2=C(C1)CN(c1ccc(C(F)(F)F)cc1)C2 [Example 95, (4-(3-hydroxyoxetan-3-yl)phenyl)(5-(4-(trifluoromethyl)phenyl)-3,4,5,6-tetrahydropyrrolo[3,4-c]pyrrol-2(1H)-yl)methanone]",19,127,226,-16 ± 9
"O=C(c1ccc(C2(O)CCOCC2)cc1)N1CCC(c2ccc(C(F)(F)F)cc2)CC1 [Example 142, (4-(4-hydroxytetrahydro-2H-pyran-4-yl)phenyl)(4-(4-(trifluoromethyl)phenyl)piperidin-1-yl)methanone]",0,77,16,-26 ± 10
"COC1(c2ccc(C(=O)N3CCC(c4ccc(C(F)(F)F)cc4)CC3)cc2)CCNCC1 [Example 144, (4-(4-methoxypiperidin-4-yl)phenyl)(4-(4-(trifluoromethyl)phenyl)piperidin-1-yl)methanone]",1,16,77,-66 ± 10
"O=C(c1ccc(C2(O)COC2)cc1)N1CCCN(c2ccc(C(F)(F)F)cc2)CC1 [Example 184, (4-(3-hydroxyoxetan-3-yl)phenyl)(4-(4-(trifluoromethyl)phenyl)-1,4-diazepan-1-yl)methanone]",19,117,250,-7 ± 7
"O=C(c1ccc(C2(O)COC2)cc1)N1CCN(c2ccc(C(F)(F)F)cn2)CC1 [Example 216, (4-(3-hydroxyoxetan-3-yl)phenyl)(4-(5-(trifluoromethyl)pyridin-2-yl)piperazin-1-yl)methanone]",0,64,189,-40 ± 6
"O=C(c1cccc(C2(O)COC2)c1)N1CCN(c2ccc(C(F)(F)F)cn2)CC1 [Example 220, (3-(3-hydroxyoxetan-3-yl)phenyl)(4-(5-(trifluoromethyl)pyridin-2-yl)piperazin-1-yl)methanone]",8,31,56,-16

# Continued, in another order:
% increase in LDL Uptake (PCSK9; 1 μM test compound) [%],% increase in LDL Uptake (PCSK9; 10 μM test compound) [%],% increase in LDL Uptake (PCSK9; 30 μM test compound) [%],SMILES,change in vivo at 30 mg/kg (High Fat Diet C57 Mice) [%]
92,130,101,"O=C(c1ccc(C2(O)COC2)cc1)N1CC2CC(O)(c3ccc(C(F)(F)F)cc3)CC2C1 (stereo not drawn) [Example 105, (5-hydroxy-5-(4-(trifluoromethyl)phenyl)hexahydrocyclopenta[c]pyrrol-2(1H)-yl)(4-(3-hydroxyoxetan-3-yl)phenyl)methanone]",-7 ± 7
3,28,43,"[2H]C([2H])([2H])OC1(c2ccc(C(=O)N3CC4CN(c5ccc(C(F)(F)F)cc5)CC4C3)cc2)COC1 (stereo not drawn) [Example 134, (4-(3-(methoxy-d3)oxetan-3-yl)phenyl)(5-(4-(trifluoromethyl)phenyl)hexahydropyrrolo[3,4-c]pyrrol-2(1H)-yl)methanone]",-38 ± 7
42,37,60,"O=C(Nc1cccc(C2(O)COC2)c1)N1CC2CN(c3ccc(C(F)(F)F)cc3)CC2C1 (stereo not drawn) [Example 182, N-(3-(3-hydroxyoxetan-3-yl)phenyl)-5-(4-(trifluoromethyl)phenyl) hexahydropyrrolo[3,4-c]pyrrole-2(1H)-carboxamide]",-5 ± 11
0,81,127,"COC1(c2ccc(C(=O)N3CC4CN(c5ccc(C(F)(F)F)nc5)CC4C3)cc2)COC1 (stereo not drawn) [Example 206, (4-(3-methoxyoxetan-3-yl)phenyl)(5-(6-(trifluoromethyl)pyridin-3-yl)hexahydropyrrolo[3,4-c]pyrrol-2(1H)-yl)methanone]",-18.6 ± 5.7
0,90,140,"O=C(c1ccc(C2(O)COC2)cc1)N1CC2CN(c3ccc(C(F)(F)F)nc3)CC2C1 (stereo not drawn) [Example 215, (4-(3-hydroxyoxetan-3-yl)phenyl)(5-(6-(trifluoromethyl)pyridin-3-yl)hexahydropyrrolo[3,4-c]pyrrol-2(1H)-yl)methanone]",-29 ± 5
